In paper PMC5390467, “Novel lead structures with both Plasmodium falciparum gametocytocidal and asexual blood stage activity identified from high throughput compound screening” (Malaria Journal, 2017):

What was measured:
PIK3CD = target: T1, PIK3CD (Homo sapiens, UniProt O00329); assay: Kinome scan profile; type: binding; settings: 10 μM
T1 construct: purchased DiscoverX (KINOMEscan)
T1 sequence (O00329 1-1044): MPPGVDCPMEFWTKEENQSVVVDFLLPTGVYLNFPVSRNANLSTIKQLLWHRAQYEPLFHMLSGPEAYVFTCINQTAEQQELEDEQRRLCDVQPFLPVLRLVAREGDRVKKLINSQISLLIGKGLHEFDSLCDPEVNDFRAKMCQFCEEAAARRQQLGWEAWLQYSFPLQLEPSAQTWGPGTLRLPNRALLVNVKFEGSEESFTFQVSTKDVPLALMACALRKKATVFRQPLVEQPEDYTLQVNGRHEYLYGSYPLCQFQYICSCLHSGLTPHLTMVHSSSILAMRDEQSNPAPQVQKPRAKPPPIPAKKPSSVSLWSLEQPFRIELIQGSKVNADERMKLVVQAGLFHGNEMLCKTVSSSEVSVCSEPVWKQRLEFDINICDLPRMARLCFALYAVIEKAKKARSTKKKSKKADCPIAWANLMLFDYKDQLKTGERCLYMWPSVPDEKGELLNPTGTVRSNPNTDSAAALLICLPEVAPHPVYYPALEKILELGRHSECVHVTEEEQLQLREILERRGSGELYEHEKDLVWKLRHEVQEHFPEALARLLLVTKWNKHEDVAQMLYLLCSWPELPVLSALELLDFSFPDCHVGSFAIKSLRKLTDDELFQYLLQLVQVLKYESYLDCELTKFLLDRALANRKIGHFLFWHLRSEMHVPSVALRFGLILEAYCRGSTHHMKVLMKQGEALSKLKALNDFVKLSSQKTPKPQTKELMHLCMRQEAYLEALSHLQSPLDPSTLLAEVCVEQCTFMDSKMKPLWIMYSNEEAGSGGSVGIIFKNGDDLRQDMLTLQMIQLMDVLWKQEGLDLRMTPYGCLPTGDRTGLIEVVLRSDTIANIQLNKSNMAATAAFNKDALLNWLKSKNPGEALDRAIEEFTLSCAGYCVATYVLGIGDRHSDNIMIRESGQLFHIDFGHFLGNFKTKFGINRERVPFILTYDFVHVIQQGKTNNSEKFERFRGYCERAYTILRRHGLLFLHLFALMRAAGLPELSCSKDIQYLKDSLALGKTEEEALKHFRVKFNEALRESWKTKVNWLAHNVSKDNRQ

PRKG2 = target: T2, PRKG2 (Homo sapiens, UniProt Q13237); assay: Kinome scan profile; type: binding; settings: 10 μM
T2 construct: purchased DiscoverX (KINOMEscan)
T2 sequence (Q13237 1-762): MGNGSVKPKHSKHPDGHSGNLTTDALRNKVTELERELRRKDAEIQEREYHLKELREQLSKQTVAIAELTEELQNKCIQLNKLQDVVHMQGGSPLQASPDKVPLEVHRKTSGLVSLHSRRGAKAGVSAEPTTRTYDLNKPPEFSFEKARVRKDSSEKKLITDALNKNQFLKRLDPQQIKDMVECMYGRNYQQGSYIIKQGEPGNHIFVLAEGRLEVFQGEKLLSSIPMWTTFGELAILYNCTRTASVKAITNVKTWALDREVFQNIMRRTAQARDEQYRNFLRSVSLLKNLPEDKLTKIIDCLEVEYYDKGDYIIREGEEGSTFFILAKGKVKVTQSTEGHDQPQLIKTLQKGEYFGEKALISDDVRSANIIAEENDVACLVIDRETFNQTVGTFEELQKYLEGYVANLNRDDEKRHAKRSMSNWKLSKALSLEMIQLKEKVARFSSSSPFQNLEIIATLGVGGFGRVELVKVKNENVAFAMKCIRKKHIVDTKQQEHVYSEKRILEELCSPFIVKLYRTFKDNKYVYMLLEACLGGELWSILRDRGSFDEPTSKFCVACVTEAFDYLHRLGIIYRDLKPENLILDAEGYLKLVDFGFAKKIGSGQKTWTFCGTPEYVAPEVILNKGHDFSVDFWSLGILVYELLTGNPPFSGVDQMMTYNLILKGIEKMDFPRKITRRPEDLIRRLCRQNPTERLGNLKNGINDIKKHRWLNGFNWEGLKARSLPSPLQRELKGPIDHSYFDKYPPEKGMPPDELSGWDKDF

HepG2 cells = assay: HepG2 cytotoxicity assay (AlamarBlue); type: cell-based, human; settings: HepG2 cells, 72 h, AlamarBlue, up to 46 µM
Procedure: Asexual parasites of P. falciparum strain NF54 were cultured as described previously. Briefly, parasites were maintained in RPMI 1640 medium containing 10% positive human serum + erythrocytes (5% haematocrit), 2.5% sodium bicarbonate and 11 µg/mL gentamicin at 37 °C with 5% CO2, 5% O2 and 90% N2. Gametocyte cultures were set up at 0.1% parasitaemia and on days 9–10 treated with 50 mM N-acetylglucosamine (NAG) to block further asexual growth. Stage III–V gametocytes were isolated by Percoll density gradient centrifugation on day 12 and returned to culture for 24 h before being used in the assay. At the time of the assay over 73% of the gametocytes were stage IV or V (Additional file 1). HepG2 cells (ATCC, cat. no. 77400) were cultured in 175-cm^2 tissue culture flasks with 30 ml growth medium at 37 °C in a 5% CO2 and 5% O2 humidified atmosphere. Growth medium was made with Dulbecco’s Modified Eagle Medium with 10% fetal bovine serum (FBS). Growth medium was replaced every other day and cells were passaged at 75% confluence.
Drug activity on HepG2 was tested using an AlamarBlue assay as previously described. Briefly, 5 μL/well of HepG2 cells were dispensed with a seeding density of 1000 cells/well using the Multidrop Combi. 23 nL compound was transferred using the NX-TR Pintool. After 72 h incubation under the standard culture condition, 5 μL/well of 2X AlamarBlue dye was added to the cells, the plates were incubated for 2 h at 37 °C with 5% CO2 and then were read in a fluorescence detection mode (Ex = 525 nm, Em = 598 nm) on a ViewLux plate reader.

- % Control, PIK3CD (PIK3CD): 10 % Control
- % Control, PRKG2 (PRKG2): 32 % Control
Structure (SMILES): CCN1CCN(Cc2c(O)ccc3c(=O)c(Oc4ccccc4C(C)C)c(C(F)(F)F)oc23)CC1 [NCGC00100599]
- HepG2, IC50 (dash = less than 25% cytotoxicity) (HepG2 cells): – (Indicates compounds with less than 25% cytotoxicity at up to 46 µM)
